Measurements published in US11453695B2, “Nucleoside analogues and methods of use thereof” (priority 2016, dated 2022).

Key:
HBV/ayW1 = test: Antiviral effect against HBV in HepG-2 cells; assay type: cell-based; conditions: Hepatitis B virus, HepG2; HBV/ayW1 in HepG-2 cells
[1] = Cell toxicity in the HBV assay; assay type: cell-based; conditions: human, HepG-2 cells

COc1nc(Cl)nc2c1ncn2[C@@H]1O[C@H](COP(=O)(N[C@@H](C)C(=O)OC(C)C)Oc2ccccc2)C(C)(Cc2nnn[nH]2)[C@H]1F (stereo partly drawn) [LCB-2147]
EC50 (HBV/ayW1): 4 µM
EC90 (HBV/ayW1): 16 µM
CC50 [1]: > 100 µM
